Test results taken from patent US7192940B2, “Ether compounds” (Esperion Therapeutics, Inc., priority 1999, dated 2007).
Blank lines part the entries; values can stand above or below the molecule they belong to.

Legend:
male Sprague-Dawley rats = test: Serum lipids, apolipoproteins and weight gain in chow-fed male Sprague-Dawley rats after seven days of oral treatment; type: in vivo, rat; details: 100 mg/kg, 7 days, vs vehicle
Procedure: Illustrative compounds of the invention were administered daily at a dose of 100 mg/kg to chow fed male Sprague-Dawley rats for seven days in the morning by oral gavage in 1.5% carboxymethylcellulose/0.2% Tween-20 (dosing vehicle). Animals were weighed daily. Animals were allowed free access to rodent chow and water throughout the study. After the seventh dose, animals were sacrificed in the evening and blood serum was assayed for lipoprotein cholesterol profiles, serum triglycerides, total cholesterol VLDL, LDL, and HDL cholesterol, and the ratio of HDL cholesterol to that of VLDL plus LDL cholesterol, apolipoproteins A-I, C-II, C-III, and E by immunoelectrophoresis, and percent weight gain.
The five compounds were tested in two separate experiments. In each experiment, the experimental data were normalized against a control group of rats which received the dosing vehicle alone.

obese female Zucker rats [1] = test: Experiment A: serum lipids, glucose, non-esterified fatty acids and weight gain in obese female Zucker rats after seven days of oral treatment; type: in vivo, rat; details: vehicle 6.6%
Procedure: Dosing vehicle, Compound A (86 mg/kg of body weight) or troglitazone (120 mg/kg of body weight) was administered to eight week old female obese Zucker rats daily for seven days in the morning by oral gavage in 1.5% carboxymethylcellulose/0.2% Tween-20. Troglitazone was obtained commercially. Finely crushed tablets were suspended in vehicle for dosing. Orbital blood samples were obtained following a six-hour fast prior to the initial dose and also following the seventh dose.
Blood serum was assayed for total cholesterol and triglycerides (FIG. 5), lipoprotein cholesterol profiles (FIG. 6), VLDL plus LDL cholesterol combined (also referred to as apo B containing lipoprotein cholesterol or non-HDL cholesterol), HDL cholesterol, and the ratio of HDL cholesterol to that of VLDL plus LDL cholesterol (FIG. 7), serum glucose, and non-esterified fatty acids (FIG. 8), and percent weight gain (FIG. 9). […] In particular, Compound A caused a marked elevation in HDL cholesterol after one week of treatment. Using the serum total cholesterol values (FIG. 5A) and the lipoprotein cholesterol distribution (FIG. 6), the amount of cholesterol associated with non-HDL (i.e., VLDL plus LDL) and HDL were determined (FIG. 7). […] In contrast, troglitazone reduced non-HDL and HDL cholesterol by 67% and 4%, respectively.

obese female Zucker rats [2] = test: Experiments B, C, D & E: serum lipids, glucose, insulin, body and liver weight in obese female Zucker rats treated for 14 days; type: in vivo, rat; details: Experiment C
Procedure: In a number of different experiments, illustrative compounds of the invention and troglitazone were administered daily at various doses to 10-week old chow fed obese female Zucker rats for 14 days in the morning by oral gavage in 1.5% carboxymethylcellulose/0.2% Tween-20 (dosing vehicle). Animals were weighed daily. Animals were allowed free access to rodent chow and water throughout the study. Blood glucose was determined after a 6-hour fast in the afternoon without anesthesia from a tail vein. Serum was also prepared from a blood sample subsequently obtained from the orbital venous plexus (with O2/CO2 anesthesia) prior to and after one week treatment and used lipid and insulin determinations. At two weeks, blood glucose was again determined after a 6-hour fast without anesthesia from a tail vein. Soon thereafter, animals were sacrificed by CO2 inhalation in the evening and cardiac blood serum was collected and assessed for various lipids and insulin. Body weight was determined daily prior to dosing and at the time of euthanasia.

[3] = tested on: LDL receptor deficient mice; test: Lipoprotein cholesterol profile in LDL receptor-deficient mice; type: in vivo; details: 300 mg/kg/day; one week; chow-fed female mice
Source text: The effect of Compound A on LDL levels in a murine model of homozygous familial hypercholesterolemia (Ishibashi et al., 1993, J. Clin. Invest. 92:883–893; Ishibashi et al., 1994, J. Clin. Invest. 93:1885–1893) was studied. LDL receptor-deficient mice have elevated LDL cholesterol relative to wild type mice when fed a chow diet. When fed cholesterol-enriched diets, these mice develop atherosclerosis.

primary rat hepatocytes = test: Synthesis of non-saponified and saponified lipids (14C-acetate incorporation) in hepatocytes; type: cell-based; details: 100 μM; 2 hr 14C-acetate labeling; vs no compound control
Procedure: A male Sprague-Dawley rat was anesthetized by administration of sodium pentobarbitol by intraparitoneal injection at 50 mg/kg. In situ perfusion of the liver was performed as follows. […] To digest the liver, DSC solution (6.7 mM KCl, 143 mM NaCl, 9.2 mM Na HEPES, 5 mM CaCl2—2H2O, 1.7 mM Fructose, 0.029 mM Phenol red, 0.2% BSA, 100 U/ml collagenase Type I, 93 U/ml Hyaluronidase, 160 BAEE/ml trypsin inhibitor, pH 7.5) was perfused through the liver at a flow rate of 30 ml/min for 6 minutes at a temperature of 37° C. After digestion, cells were dispersed in a solution of DMEM− (DMEM containing 2 mM GlutMax-1, 0.2% BSA, 5% FBS, 12 nM insulin, 1.2 μM hydrocortisone) to stop the digestion process. The crude cell suspension was filtered through three layers of stainless steel mesh with pore sizes of 250, 106, and 75 μm respectively. Filtered cells were centrifuged at 50×g for two minutes and the supernatant discarded. The resulting cell pellet was resuspended in DMEM and centrifuged again. This final cell pellet was resuspended in DMEM+HS solution (DMEM containing 2 mM GlutMax-1, 20 nM delta-aminolevulinic acid, 17.4 mM MEM non-essential amino acids, 20% FBS, 12 nM insulin, 1.2 μM hydrocortisone) and plated to form monolayer cultures at a density of 100×10^3 cells/cm^2 on collagen coated culture dishes. […]

SMILES: CC(C)(CO)CCCCOCCCCC(C)(C)CO [Compound A, 6-(6-hydroxy-5,5-dimethylhexyloxy)-2,2-dimethyl-hexan-1-ol]
change in VLDL cholesterol (male Sprague-Dawley rats): no change
increase in body weight (obese female Zucker rats [1]; 86 mg/kg): 5.4%
glucose to insulin ratio (obese female Zucker rats [2]; 100 mg/kg): reduced
blood glucose (obese female Zucker rats [2]; 100 mg/kg, fasted): tendency to lower blood glucose
decline of glucose to insulin ratio (obese female Zucker rats [2]; 1 and 3 mg/kg, over two weeks (same as control)): ⅓ to ½
weight gain (obese female Zucker rats [2]; 10, 30 and 100 mg/kg, after one and two weeks): markedly reduced
glucose to insulin ratio (obese female Zucker rats [2]; 10 and 30 mg/kg): sustained at pretreatment levels
sharp rise in serum insulin (obese female Zucker rats [2]; higher doses (above 3 mg/kg)): largely curtailed or minimized
HDL [3]: HDL elevation
LDL cholesterol [3]: rapid and significant reduction

SMILES: CC(C)(CCCOCCCC(C)(C)OP(=O)(OCc1ccccc1)OCc1ccccc1)OP(=O)(OCc1ccccc1)OCc1ccccc1 [Compound E, phosphoric acid dibenzyl ester 4-(4-(bis-benzyloxy-phosphoryloxy)-4-methyl-pentyloxy)-1,1-dimethyl-butyl ester]
rates of saponified fatty acid synthesis (primary rat hepatocytes): reduced

SMILES: CC(C)(O)CCCCOCCCCC(C)(C)O [Compound F, 6-(5-hydroxy-5-methyl-hexyloxy)-2-methyl-hexan-2-ol]
rates of saponified fatty acid synthesis (primary rat hepatocytes): reduced

weight gain (obese female Zucker rats [1]; 120 mg/kg): +11.6%
weight gain (obese female Zucker rats [2]; after two weeks at 12, 40 and 120 mg/kg, after one week at 120 mg/kg): increased weight gain
SMILES: Cc1c(C)c2c(c(C)c1O)CCC(C)(COc1ccc(CC3SC(=O)NC3=O)cc1)O2 (stereo not drawn) [troglitazone, reference compound]
percent liver to body weight (obese female Zucker rats [2]; after two weeks, doses 12, 40, 120 mg/kg (FIG. 16)): reduced at all doses
